This is an account of results in US12178791B2, “Haloallylamine sulfone derivative inhibitors of lysyl oxidases and uses thereof” (Syntara Limited, priority 2018, dated 2024).

Counter-ions that a name gives are not always drawn.

For data set [1], the target named is LOXL2 (Homo sapiens (Human), UniProt Q9Y4K0). In words: LOXL2 inhibition, Amplex Red oxidation assay. The following applies: 30 min preincubation at 37 °C, putrescine substrate. The data set is classed as biochemical. An outline of the steps:
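LOXL2 in 1.2 M urea, 50 mM sodium borate pH 8.2 was preincubated with compound (11-point curve) for 30 min at 37 °C; mofegiline/pargyline were added only for non-purified enzyme. Reaction mix held 2× KM putrescine (10 mM), 120 μM Amplex Red and 1.5 U/mL HRP. H2O2 fluorescence (ex 565/em 590 nm) was read over 30 min, and IC50 came from slopes.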

Data set [2] can be described thus: In vivo pharmacokinetics, plasma concentration after p.o. dosing. Set-up: species or system Wistar rats. The following applies: for concentration at 0.25 h / concentration at 0.5 h / concentration at 1 h / concentration at 2 h / concentration at 3 h / concentration at 5 h / concentration at 8 h / concentration at 4 h: male, Wistar, plasma, po, rat; for concentration at 0.5 h: 0.50 hours; for plasma concentrations relative to the IC50: rat plasma, after 8 hours. As to the method: Test compounds (10 mg/kg and 30 mg/kg in PBS, p.o. n=3) were administered to 7-9 weeks old male Wistar rats. Test compound blood samples were collected at time points from 0.25 h-8.00 h (Compound 1); 0.5 h-8.00 h (Compound 33) post administration, from tail vein.
Sample preparation: 20 μL of calibration samples (in single), QC samples (in duplicate) and rat plasma samples were mixed with 60 μL acetonitrile containing internal standard (IS; 200 ng/mL of tolbutamide and 50 ng/mL propanolol) in Eppendorf tubes. The mixture was vortexed for 1 min, then centrifuged for 10 min, 50 μL of supernatant was transferred to a 96 well-plate with 100 μL water. After shaking for 10 min, 10 μL was injected into the liquid chromatography mass spectrometry (LC-MS/MS) system for analysis.
HPLC: Agilent 1100; Mass Spectrometer: API 4000
Column: Phenomenex Gemini C18 5 μm 50×4.6 mm
Mobile phase: 0.1% formic acid in water, 0.1% formic acid in acetonitrile
HPLC: Shimadzu LC30AD; Mass Spectrometer: API 4000
For dilution samples: 10 μL sample was added to 90 μL blank rat plasma. The mixture was precipitated with 300 μL acetonitrile containing IS in Eppendorf tubes. The mixture was vortexed for 1 min, then centrifuged for 10 min, 50 μL supernatant was transferred to a 96 well-plate with 100 μL water. After shaking for 10 min, 10 μL was injected into the LC-MS/MS system for analysis. Determined, mean plasma concentrations for Compounds 1 and 33 are shown in Table 5 and Table 6 respectively.

Data set [3] concerns the target Bovine LOX (Bos taurus (Bovine), UniProt P33072). In words: LOX inhibition, Amplex Red oxidation assay. The following applies: 30 min preincubation at 37 °C, putrescine substrate. The data set is classed as biochemical. An outline of the steps:
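Bovine LOX in 1.2 M urea, 50 mM sodium borate pH 8.2, with 1 μM mofegiline and 0.5 mM pargyline unless recombinant or purified. The added mix held putrescine at twice KM (20 mM for LOX), 120 μM Amplex Red and 1.5 U/mL HRP.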

Data set [4] has as its target Recombinant human MAO-B (Homo sapiens (Human), UniProt P27338). Kind of data set: Inhibition of human recombinant MAO-B. The class given is biochemical. The following applies: benzylamine 100 μM. The method, then: The specificity of the compounds of this invention was tested by determining their ability to inhibit MAO-B activities in vitro. Recombinant human MAO-B (0.06 mg/mL; Sigma Aldrich) was used as source of MAO-B enzyme activities. The assay was performed in a similar way as for human SSAO/VAP-1 (Example 28) except, the substrate benzylamine was used at 100 μM.

Chain of Recombinant human MAO-B (P27338 whole entry): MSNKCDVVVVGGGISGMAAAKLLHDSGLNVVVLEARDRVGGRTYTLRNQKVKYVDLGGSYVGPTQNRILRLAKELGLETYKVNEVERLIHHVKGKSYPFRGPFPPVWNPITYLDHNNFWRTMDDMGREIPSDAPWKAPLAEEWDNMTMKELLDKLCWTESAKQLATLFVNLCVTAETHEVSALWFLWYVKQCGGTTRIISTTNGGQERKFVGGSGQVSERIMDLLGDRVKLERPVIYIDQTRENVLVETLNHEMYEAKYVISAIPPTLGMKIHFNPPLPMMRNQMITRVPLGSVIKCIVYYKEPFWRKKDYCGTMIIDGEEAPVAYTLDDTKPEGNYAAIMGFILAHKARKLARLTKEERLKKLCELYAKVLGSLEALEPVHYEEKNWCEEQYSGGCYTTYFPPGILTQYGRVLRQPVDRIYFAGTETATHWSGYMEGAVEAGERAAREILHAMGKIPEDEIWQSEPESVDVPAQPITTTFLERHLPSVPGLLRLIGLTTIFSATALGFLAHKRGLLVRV
Chain of LOXL2 (Q9Y4K0 26-774): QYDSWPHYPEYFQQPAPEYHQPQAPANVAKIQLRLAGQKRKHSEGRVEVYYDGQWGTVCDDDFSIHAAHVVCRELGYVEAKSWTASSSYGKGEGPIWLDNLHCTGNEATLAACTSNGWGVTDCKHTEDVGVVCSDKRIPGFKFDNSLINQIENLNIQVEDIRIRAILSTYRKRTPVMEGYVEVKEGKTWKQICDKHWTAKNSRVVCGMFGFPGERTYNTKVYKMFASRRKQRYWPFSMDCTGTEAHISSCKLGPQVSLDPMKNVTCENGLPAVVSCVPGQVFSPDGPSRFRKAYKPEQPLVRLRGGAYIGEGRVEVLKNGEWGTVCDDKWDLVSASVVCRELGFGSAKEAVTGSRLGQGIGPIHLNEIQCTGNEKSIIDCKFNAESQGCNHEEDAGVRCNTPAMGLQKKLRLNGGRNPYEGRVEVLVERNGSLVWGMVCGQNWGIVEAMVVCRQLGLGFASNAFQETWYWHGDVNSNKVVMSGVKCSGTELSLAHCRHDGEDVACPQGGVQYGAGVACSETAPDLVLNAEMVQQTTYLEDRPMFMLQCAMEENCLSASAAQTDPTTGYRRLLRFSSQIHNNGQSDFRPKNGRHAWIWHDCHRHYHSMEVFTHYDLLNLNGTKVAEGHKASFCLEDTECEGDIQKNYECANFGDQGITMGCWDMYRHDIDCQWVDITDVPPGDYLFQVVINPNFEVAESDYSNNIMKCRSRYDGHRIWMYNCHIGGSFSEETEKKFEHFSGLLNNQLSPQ
Chain of Bovine LOX (P33072 170-418): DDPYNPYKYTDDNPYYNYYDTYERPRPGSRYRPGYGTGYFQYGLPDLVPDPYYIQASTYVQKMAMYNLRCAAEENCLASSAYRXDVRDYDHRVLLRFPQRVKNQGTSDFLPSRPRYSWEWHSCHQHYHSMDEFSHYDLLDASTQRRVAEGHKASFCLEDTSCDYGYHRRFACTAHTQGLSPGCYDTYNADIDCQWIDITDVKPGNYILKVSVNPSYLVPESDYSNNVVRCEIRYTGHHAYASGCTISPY

Take `NC/C=C(\F)CS(=O)(=O)c1ccccc1` [Compound 1, (Z)-3-fluoro-4-(phenylsulfonyl)but-2-en-1-amine hydrochloride]: the IC50 in data set [1] is less than 10 µM. In data set [2] (10 mg/kg p.o.), the concentration at 0.25 h came out at 379 ng/mL, the concentration at 0.5 h was found to be 736 ng/mL, the concentration at 1 h came to 450 ng/mL and the concentration at 2 h stood at 134 ng/mL. In data set [2] (10 mg/kg p.o.), this molecule had a concentration at 3 h of 66.4 ng/mL, a concentration at 5 h of 27.2 ng/mL and a concentration at 8 h of 6.4 ng/mL. Also, in data set [2] (30 mg/kg p.o.), the concentration at 0.25 h turned out to be 1060 ng/mL, the concentration at 0.5 h was 2090 ng/mL, the concentration at 1 h worked out at 1200 ng/mL and the concentration at 2 h came to 657 ng/mL. In data set [2] (30 mg/kg p.o.), this molecule gave a concentration at 3 h of 238 ng/mL, a concentration at 5 h of 41.3 ng/mL and a concentration at 8 h of 13.5 ng/mL. Besides, the “plasma concentrations relative to the IC50” value in data set [2] was “far below the IC50”. Also, the IC50 in data set [3] was less than 10 µM. Further, the IC50 in data set [4] was more than 30 µM.

As for `NC/C=C(\F)CS(=O)(=O)c1cccc2cccnc12` [Compound 33, (Z)-3-fluoro-4-(quinolin-8-ylsulfonyl)but-2-en-1-amine dihydrochloride], in data set [1], the IC50 is less than 1 µM. In addition, in data set [2] (10 mg/kg p.o.), the concentration at 0.5 h was 771 ng/mL, the concentration at 1 h is 548 ng/mL, the concentration at 2 h was 246 ng/mL and the concentration at 4 h is 56.4 ng/mL. Further, the concentration at 8 h in data set [2] (10 mg/kg p.o.) was 8.4 ng/mL. In data set [2] (30 mg/kg p.o.), this molecule yielded a concentration at 0.5 h of 3710 ng/mL, a concentration at 1 h of 3010 ng/mL, a concentration at 2 h of 1470 ng/mL and a concentration at 4 h of 185 ng/mL. The molecule also displayed a concentration at 8 h in data set [2] (30 mg/kg p.o.) of 13.7 ng/mL. Further, in data set [2], the “plasma concentrations relative to the IC50” value is recorded as “far below the IC50”. Also, the IC50 in data set [3] is less than 10 µM. Further, the IC50 in data set [4] is more than 30 µM.

Usually IC50 stands for the point on the concentration scale where inhibition reaches its midpoint.
